“And” between values parts separate entries of the source, which are not always exact repeats. Identical values can stand only once.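 The compound was tested at five concentrations on cells cultured in 96-well plates, with a 48-hour exposure period. GI50 = concentration required for 50% inhibition of growth. TGI denotes the concentration required for complete inhibition of growth.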

Experimental findings from PubChem BioAssay (NCI) are described below.

Test systems include K-562 leukemia; UACC-257 melanoma; NCI-H23 lung; SK-MEL-2 melanoma; SW-620 colon; MDA-N; HCT-116 colon; SK-MEL-28 melanoma; TK-10 renal; SF-539 CNS.
Holding throughout (test): inhibition of tumour cell growth, NCI panel, 48 h

For the compound `Cc1cc(C)c(N)c(CO)c1`, the TGI in the test with K-562 leukemia, in the test on UACC-257 melanoma, in the test with NCI-H23 lung, in the test with SK-MEL-2 melanoma, in the test with SW-620 colon and with MDA-N was greater than 100 µM each time. The TGI was greater than 100 µM with HCT-116 colon; greater than 100 µM in the test on SK-MEL-28 melanoma; 18.7 µM and > 38.5 µM in the test with TK-10 renal; greater than 100 µM in the test with SF-539 CNS. In addition, in the test on TK-10 renal, the GI50 was 2.61 µM and 6.9 µM.

For the compound `CC1C/C(=C\c2ccc(O)c(O)c2)C(=O)/C(=C/c2ccc(O)c(O)c2)C1` (stereo unspecified), the TGI with K-562 leukemia was 27.4 µM; in the test on UACC-257 melanoma, 28.7 µM; with NCI-H23 lung, 12.9 µM; in the test with SK-MEL-2 melanoma, 34.8 µM; with SW-620 colon it was 34.6 µM; in the test on MDA-N, 15.7 µM. The TGI is 20 µM in the test with HCT-116 colon, 20.3 µM in the test on SK-MEL-28 melanoma, greater than 100 µM in the test with TK-10 renal and 13 µM with SF-539 CNS.

On to `CCN(CC)CCC1(C(=O)OC)SCCc2ccc(C)cc21` (stereo unspecified), for which the TGI with K-562 leukemia, in the test with UACC-257 melanoma, with NCI-H23 lung, in the test on SK-MEL-2 melanoma, in the test on SW-620 colon and in the test with MDA-N was greater than 100 µM in each case. Besides, the TGI in the test on HCT-116 colon, in the test on SK-MEL-28 melanoma, with TK-10 renal and in the test on SF-539 CNS was greater than 100 µM each time.

For `CSC(=N/N=C(\C)c1ccc(S(=O)(=O)N(C)c2ccccc2)cc1)SC`, the TGI in the test with K-562 leukemia, with UACC-257 melanoma, in the test with NCI-H23 lung, in the test with SK-MEL-2 melanoma, in the test on SW-620 colon and in the test with MDA-N was greater than 100 µM each time. In addition, the TGI in the test with HCT-116 colon, in the test on SK-MEL-28 melanoma, in the test on TK-10 renal and in the test on SF-539 CNS was greater than 100 µM throughout.
